Experimental data reported in the supplement of paper PMC10307832.

Experiments:
Assay in all cases: relative viability (nuclei count vs DMSO), 5 days (fraction); higher = more cells survive
[1] = tested on: NCI-H322M
Procedure, shortened: (§1)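 Cells from lung cancer lines were seeded into 1536-well plates and, one day later, dosed by pin tool. Treatments were either a single drug or a fixed dose of an anchor drug with five library-drug doses (not always all listed) in √10 steps. After 5 days, nuclei were stained in a one-step fixation (final 0.05% Triton X-100, 1% formaldehyde, 1 ug/ml Hoechst) and counted on 4× images, and relative viability is the treated-to-vehicle nuclei ratio, as the median of duplicate plates.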

[2] = tested on: SK-LU-1
Procedure, shortened: as §1

[3] = tested on: NCI-H2342
Procedure, shortened: as §1

[4] = tested on: EKVX
Procedure, shortened: as §1

[5] = tested on: EPLC-272H
Procedure, shortened: as §1

[6] = tested on: NCI-H2126
Procedure, shortened: as §1

[7] = tested on: NCI-H23
Procedure, shortened: as §1

[8] = tested on: EMC-BAC-2
Procedure, shortened: as §1

[9] = tested on: LCLC-103H
Procedure, shortened: as §1

[10] = tested on: PC-14
Procedure, shortened: as §1

[11] = tested on: LK-2
Procedure, shortened: as §1

[12] = tested on: NCI-H2405
Procedure, shortened: as §1

[13] = tested on: HCC-827
Procedure, shortened: as §1

[14] = tested on: NCI-H1975
Procedure, shortened: as §1

[15] = tested on: RERF-LC-KJ
Procedure, shortened: as §1

[16] = tested on: HCC-78
Procedure, shortened: as §1

[17] = tested on: NCI-H1666
Procedure, shortened: as §1

[18] = tested on: ChaGo-K-1
Procedure, shortened: as §1

[19] = tested on: SW 1573
Procedure, shortened: as §1

[20] = tested on: LU99A
Procedure, shortened: as §1

[21] = tested on: SW 900
Procedure, shortened: as §1

## COc1cc2nccc(Oc3ccc(NC(=O)Nc4cc(C)on4)c(Cl)c3)c2cc1OC [Tivozanib] + Nc1ncn([C@H]2C[C@H](O)[C@@H](CO)O2)c(=O)n1 [Decitabine] (partner 2 µM)
[1]; first compound 0.005 µM
  relative viability: 0.632
[1]; first compound 0.01581 µM
  relative viability: 0.55
[1]; first compound 0.05 µM
  relative viability: 0.762
[1]; first compound 0.1581 µM
  relative viability: 0.656
[1]; first compound 0.5 µM
  relative viability: 0.686
[2]; first compound 0.005 µM
  relative viability: 0.647
[2]; first compound 0.01581 µM
  relative viability: 0.643
[2]; first compound 0.05 µM
  relative viability: 0.644
[2]; first compound 0.1581 µM
  relative viability: 0.392
[2]; first compound 0.5 µM
  relative viability: 0.618
[3]; first compound 0.005 µM
  relative viability: 0.678
[3]; first compound 0.01581 µM
  relative viability: 0.646
[3]; first compound 0.05 µM
  relative viability: 0.789
[3]; first compound 0.5 µM
  relative viability: 0.712
[4]; first compound 0.005 µM
  relative viability: 0.308
[4]; first compound 0.01581 µM
  relative viability: 0.353
[4]; first compound 0.05 µM
  relative viability: 0.386
[4]; first compound 0.1581 µM
  relative viability: 0.363
[4]; first compound 0.5 µM
  relative viability: 0.313
[5]; first compound 0.005 µM
  relative viability: 0.342
[5]; first compound 0.01581 µM
  relative viability: 0.416
[5]; first compound 0.05 µM
  relative viability: 0.391
[5]; first compound 0.1581 µM
  relative viability: 0.409
[5]; first compound 0.5 µM
  relative viability: 0.365
[6]; first compound 0.005 µM
  relative viability: 0.645
[6]; first compound 0.01581 µM
  relative viability: 0.584
[6]; first compound 0.05 µM
  relative viability: 0.612
[6]; first compound 0.1581 µM
  relative viability: 0.602
[6]; first compound 0.5 µM
  relative viability: 0.578
[7]; first compound 0.005 µM
  relative viability: 0.304
[7]; first compound 0.01581 µM
  relative viability: 0.279
[7]; first compound 0.05 µM
  relative viability: 0.3
[7]; first compound 0.5 µM
  relative viability: 0.309
[8]; first compound 0.005 µM
  relative viability: 1.02
[8]; first compound 0.01581 µM
  relative viability: 0.977
[8]; first compound 0.05 µM
  relative viability: 0.952
[8]; first compound 0.1581 µM
  relative viability: 0.927
[8]; first compound 0.5 µM
  relative viability: 0.975
[9]; first compound 0.005 µM
  relative viability: 0.615
[9]; first compound 0.01581 µM
  relative viability: 0.708
[9]; first compound 0.05 µM
  relative viability: 0.732
[9]; first compound 0.1581 µM
  relative viability: 0.685
[9]; first compound 0.5 µM
  relative viability: 0.744
[10]; first compound 0.005 µM
  relative viability: 0.195
[10]; first compound 0.01581 µM
  relative viability: 0.214
[10]; first compound 0.05 µM
  relative viability: 0.216
[10]; first compound 0.1581 µM
  relative viability: 0.252
[10]; first compound 0.5 µM
  relative viability: 0.153
[11]; first compound 0.005 µM
  relative viability: 0.275
[11]; first compound 0.01581 µM
  relative viability: 0.322
[11]; first compound 0.05 µM
  relative viability: 0.334
[11]; first compound 0.1581 µM
  relative viability: 0.204
[11]; first compound 0.5 µM
  relative viability: 0.206
[12]; first compound 0.005 µM
  relative viability: 0.676
[12]; first compound 0.01581 µM
  relative viability: 0.771
[12]; first compound 0.05 µM
  relative viability: 0.756
[12]; first compound 0.1581 µM
  relative viability: 0.706
[12]; first compound 0.5 µM
  relative viability: 0.591
[13]; first compound 0.005 µM
  relative viability: 0.264
[13]; first compound 0.01581 µM
  relative viability: 0.345
[13]; first compound 0.05 µM
  relative viability: 0.311
[13]; first compound 0.1581 µM
  relative viability: 0.289
[13]; first compound 0.5 µM
  relative viability: 0.268
[14]; first compound 0.005 µM
  relative viability: 0.36
[14]; first compound 0.01581 µM
  relative viability: 0.414
[14]; first compound 0.05 µM
  relative viability: 0.352
[14]; first compound 0.1581 µM
  relative viability: 0.362
[14]; first compound 0.5 µM
  relative viability: 0.405
[15]; first compound 0.005 µM
  relative viability: 0.585
[15]; first compound 0.01581 µM
  relative viability: 0.646
[15]; first compound 0.05 µM
  relative viability: 0.657
[15]; first compound 0.1581 µM
  relative viability: 0.637
[15]; first compound 0.5 µM
  relative viability: 0.723
[16]; first compound 0.005 µM
  relative viability: 0.685
[16]; first compound 0.01581 µM
  relative viability: 0.807
[16]; first compound 0.05 µM
  relative viability: 0.733
[16]; first compound 0.1581 µM
  relative viability: 0.651
[16]; first compound 0.5 µM
  relative viability: 0.667
[17]; first compound 0.005 µM
  relative viability: 0.664
[17]; first compound 0.01581 µM
  relative viability: 0.683
[17]; first compound 0.05 µM
  relative viability: 0.784
[17]; first compound 0.1581 µM
  relative viability: 0.665
[17]; first compound 0.5 µM
  relative viability: 0.643
[18]; first compound 0.005 µM
  relative viability: 0.458
[18]; first compound 0.01581 µM
  relative viability: 0.498
[18]; first compound 0.05 µM
  relative viability: 0.515
[18]; first compound 0.1581 µM
  relative viability: 0.543
[18]; first compound 0.5 µM
  relative viability: 0.489
[19]; first compound 0.005 µM
  relative viability: 0.461
[19]; first compound 0.01581 µM
  relative viability: 0.446
[19]; first compound 0.05 µM
  relative viability: 0.487
[19]; first compound 0.1581 µM
  relative viability: 0.376
[19]; first compound 0.5 µM
  relative viability: 0.451
[20]; first compound 0.005 µM
  relative viability: 1.04
[20]; first compound 0.01581 µM
  relative viability: 0.769
[20]; first compound 0.05 µM
  relative viability: 0.894
[20]; first compound 0.1581 µM
  relative viability: 0.679
[20]; first compound 0.5 µM
  relative viability: 0.758
[21]; first compound 0.005 µM
  relative viability: 0.454
[21]; first compound 0.01581 µM
  relative viability: 0.411
[21]; first compound 0.05 µM
  relative viability: 0.454
[21]; first compound 0.5 µM
  relative viability: 0.389
